Measured values published in PubChem BioAssay (NCI).
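Tested at 5 concentrations; 48 h exposure; 96-well plates; endpoints linearly interpolated, else capped at highest concentration. TGI marks complete inhibition of growth.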

What was measured:
Assay in all cases: NCI anticancer screen, dose series, 48 h
786-0 renal = tested on: 786-0 renal
A498 renal = tested on: A498 renal
A549 NSCLC = tested on: A549 NSCLC
ACHN renal = tested on: ACHN renal
BT-549 breast = tested on: BT-549 breast
CAKI-1 renal = tested on: CAKI-1 renal
CCRF-CEM leukemia = tested on: CCRF-CEM leukemia
COLO 205 colon = tested on: COLO 205 colon
DU-145 prostate = tested on: DU-145 prostate
EKVX NSCLC = tested on: EKVX NSCLC
HCC-2998 colon = tested on: HCC-2998 colon
HCT-116 colon = tested on: HCT-116 colon
HCT-15 colon = tested on: HCT-15 colon
HL-60(TB) leukemia = tested on: HL-60(TB) leukemia
HOP-62 NSCLC = tested on: HOP-62 NSCLC
HOP-92 NSCLC = tested on: HOP-92 NSCLC
HS 578T breast = tested on: HS 578T breast
HT29 colon = tested on: HT29 colon
IGROV1 ovarian = tested on: IGROV1 ovarian
K-562 leukemia = tested on: K-562 leukemia
KM12 colon = tested on: KM12 colon
LOX IMVI melanoma = tested on: LOX IMVI melanoma
M14 melanoma = tested on: M14 melanoma
MALME-3M melanoma = tested on: MALME-3M melanoma
MCF7 breast = tested on: MCF7 breast
MDA-MB-231 breast = tested on: MDA-MB-231 breast
MDA-MB-435 = tested on: MDA-MB-435
MDA-N = tested on: MDA-N
MOLT-4 leukemia = tested on: MOLT-4 leukemia
NCI-H226 lung = tested on: NCI-H226 lung
NCI-H23 lung = tested on: NCI-H23 lung
NCI-H460 lung = tested on: NCI-H460 lung
NCI-H522 lung = tested on: NCI-H522 lung
NCI/ADR-RES ovarian = tested on: NCI/ADR-RES ovarian
OVCAR-3 ovarian = tested on: OVCAR-3 ovarian
OVCAR-4 ovarian = tested on: OVCAR-4 ovarian
OVCAR-5 ovarian = tested on: OVCAR-5 ovarian
OVCAR-8 ovarian = tested on: OVCAR-8 ovarian
PC-3 prostate = tested on: PC-3 prostate
RPMI-8226 leukemia = tested on: RPMI-8226 leukemia
SF-268 CNS = tested on: SF-268 CNS
SF-295 CNS = tested on: SF-295 CNS
SF-539 CNS = tested on: SF-539 CNS
SK-MEL-2 melanoma = tested on: SK-MEL-2 melanoma
SK-MEL-28 melanoma = tested on: SK-MEL-28 melanoma
SK-MEL-5 melanoma = tested on: SK-MEL-5 melanoma
SK-OV-3 ovarian = tested on: SK-OV-3 ovarian
SN12C renal = tested on: SN12C renal
SNB-19 CNS = tested on: SNB-19 CNS
SNB-75 CNS = tested on: SNB-75 CNS
SR leukemia = tested on: SR leukemia
SW-620 colon = tested on: SW-620 colon
T-47D breast = tested on: T-47D breast
TK-10 renal = tested on: TK-10 renal
U251 CNS = tested on: U251 CNS
UACC-257 melanoma = tested on: UACC-257 melanoma
UACC-62 melanoma = tested on: UACC-62 melanoma
UO-31 renal = tested on: UO-31 renal

COc1ccc(C(c2ccc(OC)cc2)N2C(=O)CCC2C(=O)O)cc1 (stereo not drawn)
TGI (786-0 renal): > 100 µM | TGI (A498 renal): > 100 µM | TGI (A549 NSCLC): > 100 µM | TGI (ACHN renal): > 100 µM | TGI (BT-549 breast): > 100 µM | TGI (CAKI-1 renal): > 100 µM | TGI (CCRF-CEM leukemia): > 100 µM | TGI (COLO 205 colon): > 100 µM | TGI (DU-145 prostate): > 100 µM | TGI (EKVX NSCLC): > 100 µM | TGI (HCC-2998 colon): > 100 µM | TGI (HCT-116 colon): > 100 µM | TGI (HCT-15 colon): > 100 µM | TGI (HL-60(TB) leukemia): > 100 µM | TGI (HOP-62 NSCLC): > 100 µM | TGI (HOP-92 NSCLC): > 100 µM | TGI (HS 578T breast): > 100 µM | TGI (HT29 colon): > 100 µM | TGI (IGROV1 ovarian): > 100 µM | TGI (K-562 leukemia): > 100 µM | TGI (KM12 colon): > 100 µM | TGI (LOX IMVI melanoma): > 100 µM | TGI (M14 melanoma): > 100 µM | TGI (MALME-3M melanoma): > 100 µM | TGI (MCF7 breast): > 100 µM | TGI (MDA-MB-231 breast): > 100 µM | TGI (MDA-MB-435): > 100 µM | TGI (MDA-N): > 100 µM | TGI (MOLT-4 leukemia): > 100 µM | TGI (NCI-H226 lung): > 100 µM | TGI (NCI-H23 lung): > 100 µM | TGI (NCI-H460 lung): > 100 µM | TGI (NCI-H522 lung): > 100 µM | TGI (NCI/ADR-RES ovarian): > 100 µM | TGI (OVCAR-3 ovarian): > 100 µM | TGI (OVCAR-4 ovarian): > 100 µM | TGI (OVCAR-5 ovarian): > 100 µM | TGI (OVCAR-8 ovarian): > 100 µM | TGI (PC-3 prostate): > 100 µM | TGI (RPMI-8226 leukemia): > 100 µM | TGI (SF-268 CNS): > 100 µM | TGI (SF-295 CNS): > 100 µM | TGI (SF-539 CNS): > 100 µM | TGI (SK-MEL-2 melanoma): > 100 µM | TGI (SK-MEL-28 melanoma): > 100 µM | TGI (SK-MEL-5 melanoma): > 100 µM | TGI (SK-OV-3 ovarian): > 100 µM | TGI (SN12C renal): > 100 µM | TGI (SNB-19 CNS): > 100 µM | TGI (SNB-75 CNS): > 100 µM | TGI (SR leukemia): > 100 µM | TGI (SW-620 colon): > 100 µM | TGI (T-47D breast): > 100 µM | TGI (TK-10 renal): > 100 µM | TGI (U251 CNS): > 100 µM | TGI (UACC-257 melanoma): > 100 µM | TGI (UACC-62 melanoma): > 100 µM | TGI (UO-31 renal): > 100 µM

O=[N+]([O-])c1ccc(NC(=S)N=Nc2c(O)[nH]c3ccccc23)cc1
TGI (786-0 renal): 18.4 µM | TGI (A549 NSCLC): 21.5 µM | TGI (ACHN renal): 21.1 µM | TGI (BT-549 breast): 55.4 µM | TGI (CAKI-1 renal): 21.7 µM | TGI (CCRF-CEM leukemia): > 100 µM | TGI (COLO 205 colon): 26.3 µM | TGI (DU-145 prostate): 29.5 µM | TGI (EKVX NSCLC): 43 µM | TGI (HCC-2998 colon): 26.7 µM | TGI (HCT-116 colon): 18.6 µM | TGI (HCT-15 colon): 16.7 µM | TGI (HL-60(TB) leukemia): > 100 µM | TGI (HOP-62 NSCLC): 18.1 µM | TGI (HOP-92 NSCLC): 30.7 µM | TGI (HS 578T breast): 59.8 µM | TGI (HT29 colon): > 100 µM | TGI (IGROV1 ovarian): 29.3 µM | TGI (K-562 leukemia): > 100 µM | TGI (KM12 colon): 78.2 µM | TGI (LOX IMVI melanoma): 36.3 µM | TGI (M14 melanoma): 25.7 µM | TGI (MALME-3M melanoma): 21.9 µM | TGI (MCF7 breast): 38.1 µM | TGI (MDA-MB-231 breast): 13.9 µM | TGI (MDA-MB-435): 53.7 µM | TGI (MDA-N): 30.2 µM | TGI (MOLT-4 leukemia): 19.8 µM | TGI (NCI-H23 lung): 54.5 µM | TGI (NCI-H460 lung): 29.2 µM | TGI (NCI-H522 lung): 34.9 µM | TGI (NCI/ADR-RES ovarian): 23.7 µM | TGI (OVCAR-3 ovarian): 28.1 µM | TGI (OVCAR-4 ovarian): 79.6 µM | TGI (OVCAR-5 ovarian): 43.3 µM | TGI (OVCAR-8 ovarian): 3.16 µM | TGI (PC-3 prostate): 16.6 µM | TGI (RPMI-8226 leukemia): > 100 µM | TGI (SF-268 CNS): 37.9 µM | TGI (SF-295 CNS): 21.5 µM | TGI (SF-539 CNS): 31.1 µM | TGI (SK-MEL-2 melanoma): 23.3 µM | TGI (SK-MEL-28 melanoma): 36.9 µM | TGI (SK-MEL-5 melanoma): 24 µM | TGI (SK-OV-3 ovarian): 14.8 µM | TGI (SN12C renal): 63 µM | TGI (SNB-19 CNS): 36.4 µM | TGI (SNB-75 CNS): 31.4 µM | TGI (SR leukemia): > 100 µM | TGI (SW-620 colon): 34.2 µM | TGI (T-47D breast): 37.7 µM | TGI (U251 CNS): 38.7 µM | TGI (UACC-257 melanoma): 47.3 µM | TGI (UACC-62 melanoma): 24 µM | TGI (UO-31 renal): 19.3 µM
